Assay: Modulation of capsid assembly in HBV infected in human HepG2.2.15 cells assessed as inhibition of viral DNA replication preincubated for 3 days followed by replacement with fresh medium containing compound and measured after 3 days by QuantiGene assay

Compound	EC50 [nM]
CCCC(=O)c1n[nH]c2c1CN(C(=O)Nc1cccc(Cl)c1)CC2 [US10189835, Compound 561]	68
CON(C)C(=O)c1n[nH]c2c1CN(C(=O)Nc1cccc(Cl)c1)[C@H](C)C2	330
CN(OC1CCOC1)C(=O)c1n[nH]c2c1CN(C(=O)Nc1cccc(Cl)c1)CC2 (centres undefined) [US10189835, Compound 910]	300
CN(OCCO)C(=O)c1n[nH]c2c1CN(C(=O)Nc1cccc(Cl)c1)CC2 [US10189835, Compound 796]	155
CC(C)ON(C)C(=O)c1n[nH]c2c1CN(C(=O)Nc1cccc(Cl)c1)CC2 [US10189835, Compound 600]	57
C[C@@H]1Cc2nn3c(c2CN1C(=O)Nc1ccc(F)c(C(F)(F)F)c1)C(=O)N(C)O[C@@H](CO)C3	2.7
Cc1cc(NC(=O)N2Cc3c(nn4c3C(=O)N(C)O[C@@H](CO)C4)C[C@H]2C)ccc1F	3.4
CONC(=O)c1n[nH]c2c1CN(C(=O)Nc1cccc(Cl)c1)CC2	400
CN(OC1COC1)C(=O)c1n[nH]c2c1CN(C(=O)Nc1cccc(Cl)c1)CC2	24
C[C@H]1Cc2nn3c(c2CN1C(=O)Nc1ccc(F)c(Cl)c1)C(=O)N(C)O[C@H](CO)C3	216
CN1O[C@H](CO)Cn2nc3c(c2C1=O)CN(C(=O)Nc1ccc(F)c(Cl)c1)CC3	15
CON(C)C(=O)c1n[nH]c2c1CN(C(=O)Nc1cccc(Cl)c1)[C@@H](C)C2	31
CON(C(=O)c1n[nH]c2c1CN(C(=O)Nc1cccc(Cl)c1)CC2)C(C)C [US10189835, Compound 595]	210
C[C@@H]1Cc2nn3c(c2CN1C(=O)Nc1ccc(F)c(Cl)c1)C(=O)N(C)O[C@H](CO)C3	4
CCON(C)C(=O)c1n[nH]c2c1CN(C(=O)Nc1cccc(Cl)c1)CC2 [US10189835, Compound 599]	63
C[C@H]1Cc2nn3c(c2CN1C(=O)Nc1ccc(F)c(Cl)c1)C(=O)N(C)O[C@@H](CO)C3	54
O=C(Nc1cccc(Cl)c1)N1CCc2[nH]nc(C(=O)N3CCCCO3)c2C1	100

Compound	EC50 [nM]
CCN(OC)C(=O)c1n[nH]c2c1CN(C(=O)Nc1cccc(Cl)c1)CC2 [US10189835, Compound 594]	90
O=C(Nc1cccc(Cl)c1)N1CCc2[nH]nc(C(=O)N3CCCO3)c2C1 [US10189835, Compound 699]	120
CCCON(C)C(=O)c1n[nH]c2c1CN(C(=O)Nc1cccc(Cl)c1)CC2 [US10189835, Compound 795]	210
CN1CC(ON(C)C(=O)c2n[nH]c3c2CN(C(=O)Nc2cccc(Cl)c2)CC3)C1 [US10189835, Compound 912]	200
C[C@@H]1Cc2nn3c(c2CN1C(=O)Nc1ccc(F)c(C#N)c1)C(=O)N(C)O[C@@H](C(=O)N(C)CC(F)F)C3	5.3
CN(OC1CCC1)C(=O)c1n[nH]c2c1CN(C(=O)Nc1cccc(Cl)c1)CC2 [US10189835, Compound 805]	97
CN1O[C@@H](CO)Cn2nc3c(c2C1=O)CN(C(=O)Nc1ccc(F)c(Cl)c1)CC3	4
C[C@@H]1Cc2nn3c(c2CN1C(=O)Nc1ccc(F)c(C#N)c1)C(=O)N(C)O[C@@H](COCC(F)F)C3	5
C[C@@H]1Cc2nn3c(c2CN1C(=O)Nc1ccc(F)c(C#N)c1)C(=O)N(C)O[C@@H](CF)C3	6
CCN(C)C(=O)c1n[nH]c2c1CN(C(=O)Nc1cccc(Cl)c1)CC2	410
C[C@@H]1Cc2nn3c(c2CN1C(=O)Nc1ccc(F)c(C#N)c1)C(=O)N(C)O[C@@H](CO)C3	7.3
CCOC(=O)c1n[nH]c2c1CN(C(=O)Nc1cccc(Cl)c1)CC2	260
CON(C)C(=O)c1n[nH]c2c1CN(C(=O)Nc1cccc(Cl)c1)CC2 [US10189835, Compound 434]	54
CN(OC1CCCOC1)C(=O)c1n[nH]c2c1CN(C(=O)Nc1cccc(Cl)c1)CC2 (centres undefined)	370
C[C@@H]1Cc2nn3c(c2CN1C(=O)Nc1ccc(F)c(Cl)c1)C(=O)N(C)O[C@@H](CO)C3	4
C[C@@H]1Cc2nn3c(c2CN1C(=O)Nc1ccc(F)c(C#N)c1)C(=O)N(C)OCC3	5.3
C[C@@H]1Cc2nn3c(c2CN1C(=O)Nc1ccc(F)c(Cl)c1)C(=O)N(C)O[C@@H](CN(C)C)C3	21
